Source: patent US9763894B2, “Inflammation therapy” (Virginia Commonwealth University, priority 2006, dated 2017)
Entries after “also recorded” stand apart in the source; their conditions may differ.

Key:
mice [1] = conditions: reference CB1/CB2 agonist, all four measures; cited from earlier work
human CB2 receptor [2] = biological target: T1, human CB2 receptor (Homo sapiens, UniProt P34972); assay: 35S-GTPγS binding, CHO cells expressing human CB2 receptor; assay type: biochemical
T1 construct: expressed in transfected cells
T1 sequence (P34972 whole entry): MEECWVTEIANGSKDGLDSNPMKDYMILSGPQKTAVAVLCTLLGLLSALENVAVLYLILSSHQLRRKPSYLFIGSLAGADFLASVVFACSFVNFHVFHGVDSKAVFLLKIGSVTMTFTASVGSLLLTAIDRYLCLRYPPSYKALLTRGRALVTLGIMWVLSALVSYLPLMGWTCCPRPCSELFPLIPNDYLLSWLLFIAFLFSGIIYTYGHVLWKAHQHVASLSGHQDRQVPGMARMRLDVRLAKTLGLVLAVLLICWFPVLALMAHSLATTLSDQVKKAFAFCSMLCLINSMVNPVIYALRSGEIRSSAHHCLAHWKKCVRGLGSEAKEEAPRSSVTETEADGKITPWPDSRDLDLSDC
Description: (§1) (Martin et al. 2002; Wiley et al. 2002) CB1 and CB2 receptor affinities were determined using ^3H-CP 55,940 binding to rat brain membranes and to Chinese Hamster Ovary (CHO) cells stably expressing the human CB2 receptor, respectively. In vitro functional activity was determined in these same preparations using ^35S-GTPγS binding. For in vivo behavioural effects, mice were injected intravenously with the drugs prepared in ethanol:emulphor:saline (1:1:18). The mice were evaluated for locomotor activity, analgesia, body temperature, and catalepsy. These behaviours are collectively referred to as the tetrad test and are indicative of CB1 receptor activity.

mice [3] = assay: Tetrad test (locomotor activity, analgesia, body temperature, catalepsy), indicative of CB1 receptor activity; assay type: in vivo, mouse; conditions: i.v., doses up to 30 mg/kg
Description: The cerebral ischemia/reperfusion studies were carried out on 8 week old male C57BL/6 mice (weighing 23 to 27 g; Taconic N.Y.) and conducted in accordance with the guidelines approved by Institute for Animal Care and Use Committee at Temple University. The behavioural evaluation of the cannabinoid analogs was carried out in 8-week old ICR male mice weighing 23-27 g in accordance with the guidelines approved by the Institute for Animal Care and Use Committee at Virginia Commonwealth University.
as §1

C57BL/6 mice [4] = assay: Regional cerebral blood flow (rCBF) during MCAO; assay type: in vivo, mouse; conditions: 1 mg/kg, 1 hour prior to occlusion, versus vehicle
Description: (§2) The animals were anesthetized with an intraperitoneal injection of Ketamine ([…])-Xylazine (20 mg/kg) mixture (1:1) at a dose of 1 ml/kg. Body temperature was maintained at […]° C. by a heating lamp and heating pad. Middle cerebral artery occlusion was achieved by the intraluminal filament methods. (Hata et al. 1998) Briefly, a midline neck incision was made under the operation microscope; the right common carotid artery (CCA), external carotid artery (ECA) and internal carotid artery (ICA) were isolated. The ECA was ligated with 6-0 silk suture distal from the ICA-ECA branch and then cut distal from ligated point. Another 6-0 silk suture was tied loosely around ECA at close to the origin at the CCA. A blunted 5-0 monofilament nylon suture coated with poly-L-lysine (0.1% in deionized water, Sigma) (Belayev et al. 1999) was introduced from a small incision on ECA and then advanced into the circle of Willis, and finally to the origin of the middle cerebral artery. The silk suture around the ECA stump was tied tightly to prevent bleeding and secure the nylon suture. The nylon suture was removed after 60 minutes occlusion and ECA was permanently tied. Reperfusion was confirmed when pulsations were again observed in ICA.
A laserPro Blood Perfusion Monitor (TSI Inc) was used to monitor regional cerebral blood flow (rCBF) prior to ischemia, during MCAO and reperfusion. […]

C57BL/6 mice [5] = assay: Infarct volume after middle cerebral artery occlusion and reperfusion (MCAO/R); assay type: in vivo, mouse; conditions: 24 hours after MCAO
Description: as §2
The CB2 agonists (O-1966 and O-3853: described in Wiley et al and WO 03/091189, incorporated herein by reference, and the copending application of Razdan et al)) were dissolved in a pure ethanol:emulphor:saline mixed solution at 1:1:18. The CB2 agonists (1 mg/kg) or equal volume of vehicle were administered as an intravenous injection into the jugular vein 1 hour before MCAO or 10 minutes after reperfusion. The investigator was blinded with regard to whether the animals were members of vehicle or treatment groups during all experimental procedures and measurements.
Animals were euthanized with an overdose of pentobarbital (200 mg/kg i.p) 24 hours after MCAO and then the brains were removed. The brains were chilled in ice for 10 minutes to slightly harden the tissue. Five 2 mm coronal sections were cut using a mouse brain matrix (Zivic lab).The brain sections were placed in 2% triphenyltetrazolium chloride (TTC) (Sigma, Inc) dissolved in saline and stained for 20 minutes at 37° C. in the dark. The brain sections were then fixed in 4% paraformaldehyde at 4° C. for 24 hours and the anterior and caudal face of each section was scanned by a flatbed color scanner (Microtek Inc). The resulting images were captured as JPEG files (FIG. 2E) and analyzed with NIH image software. The infarct volumes were expressed as mm^3 as well as the percentage of the ipsilateral hemisphere.

C57BL/6 mice [6] = assay: Neurological evaluation (five-point deficit score) after MCAO/R; assay type: in vivo, mouse; conditions: 24 hours post-ischemia
Description: as §2, with “The silk suture around the ECA stump was tied tightly to prevent bleeding and secure the nylon suture. The nylon suture was removed after 60 minutes occlusion and ECA was permanently tied. Reperfusion was confirmed when pulsations were again observed in ICA.” left out
The severity of neurological deficits was evaluated 24 hours after ischemic insult using a five-point deficit score (0=normal motor function; 1=flexion of torso and of contralateral forelimb upon lifting of the animal by tail; 2=circling to the contralateral side but normal posture at rest; 3=leaning to contralateral side at rest; and 4=no spontaneous motor activity) (Hata et al. 1998).

C57BL/6 mice [7] = assay: Leukocyte/endothelial interactions by intravital microscopy through a cranial window in MCAO/R; assay type: in vivo, mouse; conditions: treatment 1 hour before MCAO
Description: On the day of cranial window implantation, the animals were anesthetized with an intraperitoneal injection of Ketamine (100 mg/ml)-Xylazine (20 mg/kg) mixture (1:1) at a dose of 1 ml/kg. The head was shaved and positioned in a stereotactic head holder. A 1 cm^2 area of skin on the dorsal surface of the skull over the right cortical hemisphere was excised and the periosteum was removed. A 4 mm diameter circular craniotomy was performed using a high speed drill (Champ-Air Dental Drill Benco Dental) over the right parietal cortex extending from attachment of the temporal muscle to midpoint of sagittal suture in the coronal direction and aligned to middle of the sagittal suture, so that the window contained some terminal branches of the middle cerebral artery. Normal saline was dripped over the cranium to avoid thermal injury of the cortex. […]
Leukocyte/endothelial interactions were evaluated before MCAO, 1 hour after MCAO and 24 hours after MCAO. […] Three venules (with diameter 30-50 μm) and three arterioles (with diameter 20-40 μm) in each animal were assessed. […] They were counted when they passed an arbitrary line perpendicular to the longitudinal axis of the vessel over a period of 30 seconds. […] Adhering leukocytes were scored as the number of cells per mm^2 of the vascular surface area, calculated from the diameter and standardized length (100 μm) of the vessel segment under investigation.

C57BL/6 mice [8] = assay: Thoracic spinal cord injury (SCI) model; assay type: in vivo, mouse
Description: A thoracic spinal cord injury model was induced in female 6-8 week old C57BL/6 mice. Spinal cord CB2 mRNA expression was evaluated in sham animals and SCI animals 24 hours after injury by real time RT-PCR. Animals were randomized into two groups: the experimental group received intraperitoneal injections of a selective CB2 agonist (O-1966; 1 mg/kg) one hour before injury, 24 and 48 hours after injury; the control group received equal volumes of vehicle. Both groups were tested for motor function by using the Basso Mouse Scale for Locomotion (BMS) and the Basso, Beattie, Bresnahan Locomotor Rating Scale (BBB) on post-procedure days 1, 7, and 14. Urine mass was recorded twice daily to assess bladder recovery. The inflammatory cytokine TNF-α was measured by real time RT-PCR in both groups 24 hours after SCI.

CB1 receptor = biological target: T2, CB1 receptor (Rattus norvegicus, UniProt P20272); conditions: reported previously (Wiley et al. 2002); read-out: affinity for CB1 cannabinoid receptor; cited from earlier work
T2 construct: from tissue; host or cells: rat brain membranes
T2 sequence (P20272 whole entry): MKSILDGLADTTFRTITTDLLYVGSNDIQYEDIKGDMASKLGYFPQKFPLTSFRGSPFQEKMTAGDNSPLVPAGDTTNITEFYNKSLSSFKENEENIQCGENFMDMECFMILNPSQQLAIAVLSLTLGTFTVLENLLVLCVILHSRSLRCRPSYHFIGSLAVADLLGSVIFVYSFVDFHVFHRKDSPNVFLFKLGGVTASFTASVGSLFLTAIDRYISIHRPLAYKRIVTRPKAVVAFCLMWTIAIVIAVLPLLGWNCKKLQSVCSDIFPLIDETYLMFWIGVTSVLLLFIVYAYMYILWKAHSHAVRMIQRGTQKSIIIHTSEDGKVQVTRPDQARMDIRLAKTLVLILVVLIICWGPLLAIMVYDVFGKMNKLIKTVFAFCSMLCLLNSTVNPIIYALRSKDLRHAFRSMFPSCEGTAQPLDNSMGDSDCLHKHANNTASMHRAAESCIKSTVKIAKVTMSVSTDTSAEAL

human CB2 receptor [9] = biological target: T1, human CB2 receptor; conditions: reported previously (Wiley et al. 2002); read-out: affinity for CB2 cannabinoid receptor; cited from earlier work
[10] = 1 mg/kg i.v. 10 minutes after reperfusion (post-reperfusion treatment)
[11] = 1 mg/kg i.v. 1 hour before MCAO (pre-ischemic treatment)

CCCCCc1cc(O)c2c(c1)OC(C)(C)[C@@H]1CCC(C)=C[C@@H]21 [Δ^9-tetrahydrocannabinol]
ED50's in the four tetrad measures (mice [1]): 1 to 2 mg/kg

CCCCCCC(C)(C)c1cc(OC)c(C2(O)CCCC(C)C2)c(OC)c1 (centres unmarked) [O-1966]
EC50 (human CB2 receptor [2]; CHO cells with human CB2, read-out: EC50 for stimulating 35S-GTPγS binding (CB2)): 70 ± 14 nM | Emax (human CB2 receptor [2]; percent of maximal stimulation produced by the full agonist CP 55,940): 74 ± 5% | effects in the tetrad test (CB1 receptor-mediated behavioural effects) (mice [3]): produced some modest behavioural effects only at doses that far exceeded those used in the MCAO/R studies; also recorded: failed to produce effects in the tetrad test | effect on rCBF during the 1 hour occlusion period (C57BL/6 mice [4]): no effect on rCBF | infarct volume (C57BL/6 mice [5]; [10]): 71.3±5.5 mm^3 | infarct volume as percentage of the ipsilateral hemisphere (C57BL/6 mice [5]; [10]): 27±2% | infarct volume (C57BL/6 mice [5]; [11]): 65.6±4.0 mm^3 | infarct volume as percentage of the ipsilateral hemisphere (C57BL/6 mice [5]; [11]): 25±2.5% | motor function score (C57BL/6 mice [6]; pretreatment 1 hour before MCAO, vehicle 3.25±0.20): 1.69±0.30 | motor function (C57BL/6 mice [6]; treatment during reperfusion): significantly improved the motor function | leukocyte/endothelial interactions (C57BL/6 mice [7]): attenuated leukocyte/endothelial interactions | motor function recovery (BMS and BBB) (C57BL/6 mice [8]; 1 mg/kg i.p. one hour before, 24 and 48 hours after injury, days 1, 7 and 14): better motor function recovery than the control group | bladder function recovery rate (C57BL/6 mice [8]; 1 mg/kg i.p., 14th day after SCI, control group 14%): 45% | TNF-α expression in the injured spinal cord (C57BL/6 mice [8]; real time RT-PCR, 24 hours after SCI, compared to control group): decreased TNF-α expression | Ki (CB1 receptor): 5.05 µM | Ki (human CB2 receptor [9]): 23 ± 2.1 nM
